Experiments:
LPL (lipoprotein lipase) = target: T1, LPL (lipoprotein lipase) (Mus musculus, UniProt P11152); assay: Confirmation test of LPL activation effect in mouse skeletal muscle cells (C2C12 cells); assay type: cell-based; conditions: 8 hours exposure, vs control group
T1 construct: endogenous in cells; host or cells: C2C12 cells, differentiated
T1 sequence (P11152 28-474): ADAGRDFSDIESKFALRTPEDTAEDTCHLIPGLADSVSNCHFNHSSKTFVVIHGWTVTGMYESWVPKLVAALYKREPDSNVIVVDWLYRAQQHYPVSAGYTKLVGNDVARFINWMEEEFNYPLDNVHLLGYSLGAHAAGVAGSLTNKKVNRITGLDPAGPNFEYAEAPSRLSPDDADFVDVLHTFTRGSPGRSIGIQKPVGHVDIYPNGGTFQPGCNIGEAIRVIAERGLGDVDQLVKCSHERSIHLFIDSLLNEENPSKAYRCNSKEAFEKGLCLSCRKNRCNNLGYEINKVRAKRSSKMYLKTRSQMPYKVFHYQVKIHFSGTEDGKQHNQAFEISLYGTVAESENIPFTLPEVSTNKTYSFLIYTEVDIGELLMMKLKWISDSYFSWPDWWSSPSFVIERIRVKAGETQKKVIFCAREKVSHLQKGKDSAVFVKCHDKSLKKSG
Experimental: Human skeletal muscle cells (human skeletal muscle myoblasts) or mouse skeletal muscle cells (C2C12 cells) that were seeded onto plates, cultured, and differentiated were exposed to a 0.3% dimethyl sulfoxide-containing culture medium in which the compound of the present invention was dissolved (concentration: 10 μM or 30 μM). The medium was removed 8 hours after exposure, 10 mM of Tris-HCl buffer (150 mM NaCl, 10 μ/mL; containing heparin sodium) was added to the cells, and the cells were incubated at 37° C. in the presence of 5% CO2 for 10 minutes. LPL activity in the supernatant was measured using an LPL activity assay kit (made by Roar Biomedical Inc.). LPL activity was evaluated based on the increase in fluorescence intensity 10 to 70 minutes after mixing the supernatant with the LPL substrate. The mean value of the increase in fluorescence intensity of the cells exposed to a 0.3% dimethyl sulfoxide-containing culture medium […] was used as mean value of the control group. Note that the compounds of Examples 18, 19, 32, 45 and 57 were tested using human skeletal muscle cells, and other compounds were tested using mouse skeletal muscle cells. The rate of increase (%) was calculated from the measured values of LPL activity in the control group and the experimental group, according to the following formula. Rate of increase in LPL activity (%)=[(mean value of the experimental group)−(mean value of the control group)]/(mean value of the control group)×100

Compound	melting point	Rate of increase in LPL activity (LPL (lipoprotein lipase); amount of addition 10 μM)	Rate of increase in LPL activity (LPL (lipoprotein lipase); amount of addition 30 μM)
COc1cc(-c2c[nH]c(-c3cc(Cl)cc(Cl)c3)n2)ccc1OCc1ccccc1 [Example 15]	250 to 251 °C	79%	97%
COc1cc(OCc2ccc(Br)cc2F)ccc1-c1c[nH]c(-c2cc(Cl)cc(Cl)c2)n1 [Example 91]	260 to 265 °C	28%	95%
COc1cc(-c2c[nH]c(-c3ccc(Cl)cc3)n2)ccc1OCc1ccccc1 [Example 4]	228 to 229 °C	31%	45%
COc1cc(OCc2ccc(Cl)cc2)ccc1-c1c[nH]c(-c2ccccc2C(F)(F)F)n1 [Example 83]	158 to 161 °C	29%	100%
COc1cc(OCc2ccccc2)ccc1-c1c[nH]c(C(C)C)n1 [Example 30]	154 to 156 °C	11%	47%
COc1cc(OCc2ccc(Cl)cc2)ccc1-c1c[nH]c(-c2cccc(F)c2)n1.Cl [Example 78]	231 to 232 °C	14%	60%
COc1cc(OCc2ccc(Br)cc2F)ccc1-c1c[nH]c(-c2ccsc2)n1.Cl [Example 68]	247 to 249 °C	10%	289%
COc1cc(OCc2ccc(C#N)cc2)ccc1-c1c[nH]c(-c2cccc(Cl)c2)n1 [Example 97]	154 to 157 °C	27%	63%
COc1cc(-c2c[nH]c(-c3ccc(F)cc3)n2)ccc1OCc1ccc(Cl)cc1.Cl [Example 48]	243 to 245 °C	18%	96%
COc1cc(OCc2ccc(Cl)cc2)ccc1-c1c[nH]c(-c2ccc(F)c(F)c2)n1 [Example 112]	252 to 257 °C	58%	199%
COc1cc(OCc2ccc(Br)cc2F)ccc1-c1c[nH]c(-c2ccccc2)n1.Cl [Example 11]	239 to 240 °C	96%	231%
COc1cc(-c2c[nH]c(-c3ccc(C(C)(C)C)cc3)n2)ccc1OCc1ccccc1 [Example 28]	138 to 141 °C	30%	53%
COc1cc(-c2c[nH]c(-c3ccc(Cl)cc3)n2)ccc1OCc1ccc(C#N)cc1 [Example 77]	231 to 232 °C	54%	133%
COc1ccc(-c2nc(-c3ccc(OCc4ccc(C#N)cc4)cc3OC)c[nH]2)cc1.Cl [Example 87]	183 to 186 °C	23%	144%
COc1cc(OCc2ccc(Cl)cc2F)ccc1-c1c[nH]c(-c2ccccc2)n1.Cl [Example 139]	249 to 251 °C	71%	128%
COc1cc(OCc2ccc(Cl)cc2)ccc1-c1c[nH]c(-c2ccc(Cl)cc2)n1 [Example 82]	181 to 184 °C	27%	86%
COc1cc(OCc2ccccc2)ccc1-c1c[nH]c(-c2ccc(Cl)c(Cl)c2)n1.Cl [Example 124]	242 to 245 °C	93%	113%
COc1cccc(-c2nc(-c3ccc(OCc4ccc(Cl)cc4F)cc3OC)c[nH]2)c1.Cl [Example 134]	245 to 249 °C	32%	308%
COc1cc(OCc2ccc(Cl)cc2)ccc1-c1c[nH]c(-c2ccc(Cl)c(Cl)c2)n1 [Example 110]	145 to 148 °C	37%	106%
COc1cc(OCc2ccc(C#N)cc2)ccc1-c1c[nH]c(-c2ccc(F)c(F)c2)n1 [Example 96]	173 to 176 °C	27%	96%

Compound	melting point	Rate of increase in LPL activity (LPL (lipoprotein lipase); amount of addition 10 μM)	Rate of increase in LPL activity (LPL (lipoprotein lipase); amount of addition 30 μM)
COc1cc(OCc2ccc(Cl)cc2F)ccc1-c1c[nH]c(-c2ccc(F)cc2)n1.Cl [Example 133]	259 to 260 °C	63%	236%
COc1cc(-c2c[nH]c(-c3ccsc3)n2)ccc1OCc1ccc(C#N)cc1 [Example 66]	176 to 180 °C	24%	32%
COc1cccc(-c2nc(-c3ccc(OCc4ccc(C#N)cc4)cc3OC)c[nH]2)c1 [Example 100]	139 to 142 °C	12%	43%
COc1cc(-c2c[nH]c(-c3ccc(F)c(F)c3)n2)ccc1OCc1ccccc1.Cl [Example 47]	226 to 227 °C	38%	120%
COc1cccc(-c2nc(-c3ccc(OCc4ccc(Br)cc4F)cc3OC)c[nH]2)c1.Cl [Example 99]	255 to 258 °C	14%	90%
COc1cc(OCc2ccc(Br)cc2F)ccc1-c1c[nH]c(-c2ccc(Cl)c(Cl)c2)n1 [Example 102]	260 to 262 °C	44%	88%
COc1cc(-c2c[nH]c(-c3cccc(F)c3)n2)ccc1OCc1ccccc1.Cl [Example 46]	212 to 215 °C	49%	88%
COc1ccc(-c2nc(-c3ccc(OCc4ccc(Br)cc4F)cc3OC)c[nH]2)cc1OC.Cl [Example 93]	255 to 256 °C	36%	174%
COc1cc(OCc2ccccc2)ccc1-c1c[nH]c(-c2ccc(C(F)(F)F)cc2)n1 [Example 13]	231 to 232 °C	46%	234%
COc1cc(-c2c[nH]c(-c3ccc(F)cc3)n2)ccc1OCc1ccccc1 [Example 36]	214 to 216 °C	6%	113%
COc1cc(OCc2ccc(C#N)cc2)ccc1-c1c[nH]c(-c2ccc(C)cc2)n1 [Example 85]	195 to 198 °C	10%	99%
COc1cc(OCc2ccc(Br)cc2F)ccc1-c1c[nH]c(-c2cccc(C(F)(F)F)c2)n1.Cl [Example 58]	> 250 °C	45%	150%
COc1cc(OCc2ccccc2)ccc1-c1c[nH]c(-c2ccccc2)n1.Cl [Example 7]	229 to 230 °C	69%	197%
COc1cc(-c2c[nH]c(-c3ccsc3)n2)ccc1OCc1ccccc1C#N.Cl [Example 73]	236 to 237 °C	55%	108%
COc1cc(-c2c[nH]c(-c3cccc(F)c3)n2)ccc1OCc1ccc(Cl)cc1.Cl [Example 79]	235 to 237 °C	16%	64%
COc1cc(OCc2ccc(C#N)cc2)ccc1-c1c[nH]c(-c2ccsc2)n1 [Example 65]	183 to 186 °C	24%	46%
COc1cc(-c2c[nH]c(-c3cccc(C(F)(F)F)c3)n2)ccc1OCc1ccc(C#N)cc1.Cl [Example 75]	231 to 232 °C	43%	89%
COc1cc(-c2c[nH]c(-c3ccccc3)n2)ccc1OCc1ccc(Cl)cc1 [Example 2]	87 to 89 °C	13%	38%
COc1cc(-c2nc(-c3ccc(F)cc3)[nH]c2C)ccc1OCc1ccccc1 [Example 49]	214 to 218 °C	47%	147%

Reference: patent publication US8329739B2, “Phenylimidazole compounds” (Otsuka Pharmaceutical Factory, Inc., priority 2009, dated 2012)
